Assay results taken from patent publication US20070264324A1, “Use of Vegetable Anthraquinone Derivatives and Vegetable Polysaccharides For Treating Human Immunodeficiency Virus (HIV)” (priority 2004, published 2007).

System: TC740 cells
Type: cell-based
Settings: 72 h
Procedure: The present invention relates to using emodin and RRP to inhibit HIV in an exogenous (however endocellular) environment, in order to attest their anti-HIV effectiveness. More specifically, the invention includes: • 1. Preparing emodin and RRP solutions with various concentrations (70-98% for emodin, and 80-95% for RRP). • 2. Culturing test subjects containing 100 μL of cells using cell incubator under 37° C. and 5% CO2 for 24 hours, forming monolayer on each culture media. • 3. Testing the toxicity of the agents: apply Rheum rhaponticum extractions to the monolayer on culture medium. Maintain the culture media under 37° C. and 5% CO2 for 72 hours, and observe the monolayer for cellular viability. […] These standard concentrations of emodin range between 70% and 98%, and those of RRP range between 80% and 95%. • 4. Testing the anti-HIV effectiveness of emodin and RRP: apply a specific concentration of HIV to those culture medium containing viable cells and already applied with emodin and/or RRP. Observe the viability of cells, and compare them with those in the control groups.
3. Cytotoxicity test: apply an emodin/RRP mixture with a concentration between 1600 μg/mL and 25 μg/mL to the culture medium, and maintain the medium under […] for 72 hours before observing.

standard concentrations that do not affect the growth of cells: 70% and 98%
SMILES: Cc1cc(O)c2c(c1)C(=O)c1cc(O)cc(O)c1C2=O [emodin]
